According to ChEMBL document CHEMBL1125568, “ATP-citrate lyase as a target for hypolipidemic intervention. Sulfoximine and 3-hydroxy-beta-lactam containing analogues of citric acid as potential tight-binding inhibitors” (J Med Chem, 1992):

B1: ATP-citrate synthase (Rattus norvegicus), P16638 (protein)
chain: MSAKAISEQTGKELLYKYICTTSAIQNRFKYARVTPDTDWAHLLQDHPWLLSQSLVVKPDQLIKRRGKLGLVGVNLSLDGVKSWLKPRLGHEATVGKAKGFLKNFLIEPFVPHSQAEEFYVCIYATREGDYVLFHHEGGVDVGDVDTKAQKLLVGVDEKLNAEDIKRHLLVHAPEDKKEILASFISGLFNFYEDLYFTYLEINPLVVTKDGVYILDLAAKVDATADYICKVKWGDIEFPPPFGREAYPEEAYIADLDAKSGASLKLTLLNPKGRIWTMVAGGGASVVYSDTICDLGGVNELANYGEYSGAPSEQQTYDYAKTILSLMTREKHPDGKILIIGGSIANFTNVAATFKGIVRAIRDYQGSLKEHEVTIFVRRGGPNYQEGLRVMGEVGKTTGIPIHVFGTETHMTAIVGMAWAPAIPNQPPTAAHTANFLLNASGSTSTPAPSRTASFSESRADEVAPAKKAKPAMPQDSVPSPRSLQGKSATLFSRHTKAIVWGMQTRAVQGMLDFDYVCSRDEPSVAAMVYPFTGDHKQKFYWGHKEILIPVFKNMADAMKKHPEVDVLINFASLRSAYDSTMETMNYAQIRTIAIIAEGIPEALTRKLIKKADQKGVTIIGPATVGGIKPGCFKIGNTGGMLDNILASKLYRPGSVAYVSRSGGMSNELNNIISRTTDGVYEGVAIGGDRYPGSTFMDHVLRYQDTPGVKMIVVLGEIGGTEEYKICRGIKEGRLTKPVVCWCIGTCATMFSSEVQFGHAGACANQASETAVAKNQALKEAGVFVPRSFDELGEIIQSVYEDLVAKGAIVPAQEVPPPTVPMDYSWARELGLIRKPASFMTSICDERGQELIYAGMPITEVFKEEMGIGGVLGLLWFQRRLPKYSCQFIEMCLMVTADHGPAVSGAHNTIICARAGKDLVSSLTSGLLTIGDRFGGALDAAAKMFSKAFDSGIIPMEFVNKMKKEGKLIMGIGHRVKSINNPDMRVQILKDFVKQHFPATPLLDYALEVEKITTSKKPNLILNVDGFIGVAFVDMLRNCGSFTREEADEYVDIGALNGVFVLGRSMGFIGHYLDQKRLKQGLYRHPWDDISYVLPEHMSM

What was measured:
[1] = target: T1, ATP-citrate synthase (Rattus norvegicus) (UniProt P16638); assay: Inhibitory activity against rat ATP-Citrate lyase measured in terms of Vmax.
T1 sequence (whole entry): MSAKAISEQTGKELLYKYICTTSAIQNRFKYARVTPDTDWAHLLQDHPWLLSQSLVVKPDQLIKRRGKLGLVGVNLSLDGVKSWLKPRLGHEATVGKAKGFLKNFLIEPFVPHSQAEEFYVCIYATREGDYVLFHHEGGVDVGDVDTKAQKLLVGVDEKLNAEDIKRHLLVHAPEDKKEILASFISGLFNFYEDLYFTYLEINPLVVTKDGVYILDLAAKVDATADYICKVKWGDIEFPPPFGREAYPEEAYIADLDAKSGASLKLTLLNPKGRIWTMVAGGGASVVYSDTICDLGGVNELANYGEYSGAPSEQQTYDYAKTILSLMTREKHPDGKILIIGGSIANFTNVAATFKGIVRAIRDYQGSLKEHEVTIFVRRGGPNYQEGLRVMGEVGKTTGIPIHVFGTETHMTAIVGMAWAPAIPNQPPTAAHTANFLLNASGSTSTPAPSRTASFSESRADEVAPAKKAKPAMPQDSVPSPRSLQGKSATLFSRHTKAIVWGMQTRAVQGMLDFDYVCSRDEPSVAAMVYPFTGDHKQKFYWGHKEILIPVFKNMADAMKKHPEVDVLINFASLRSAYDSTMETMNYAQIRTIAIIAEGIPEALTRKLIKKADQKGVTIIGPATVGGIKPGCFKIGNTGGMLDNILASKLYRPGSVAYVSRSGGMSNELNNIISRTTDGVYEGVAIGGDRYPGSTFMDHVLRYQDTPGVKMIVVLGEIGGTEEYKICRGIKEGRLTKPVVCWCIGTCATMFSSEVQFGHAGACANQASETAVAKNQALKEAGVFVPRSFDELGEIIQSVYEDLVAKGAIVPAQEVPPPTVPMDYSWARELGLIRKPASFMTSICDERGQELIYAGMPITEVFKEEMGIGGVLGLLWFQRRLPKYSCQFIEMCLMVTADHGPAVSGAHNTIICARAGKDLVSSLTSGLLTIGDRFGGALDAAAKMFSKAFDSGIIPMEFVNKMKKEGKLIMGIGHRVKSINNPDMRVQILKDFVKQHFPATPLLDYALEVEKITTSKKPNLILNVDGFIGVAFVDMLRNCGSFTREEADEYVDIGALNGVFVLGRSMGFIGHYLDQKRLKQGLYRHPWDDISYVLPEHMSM

ATP-citrate synthase = target: T2, ATP-citrate synthase (Rattus norvegicus, UniProt P16638); assay: Reversible binding Ki was measured by the inhibition of the carbon-carbon bond cleavage activity against rat ATP-Citrate Lyase
T2 sequence (P16638 whole entry): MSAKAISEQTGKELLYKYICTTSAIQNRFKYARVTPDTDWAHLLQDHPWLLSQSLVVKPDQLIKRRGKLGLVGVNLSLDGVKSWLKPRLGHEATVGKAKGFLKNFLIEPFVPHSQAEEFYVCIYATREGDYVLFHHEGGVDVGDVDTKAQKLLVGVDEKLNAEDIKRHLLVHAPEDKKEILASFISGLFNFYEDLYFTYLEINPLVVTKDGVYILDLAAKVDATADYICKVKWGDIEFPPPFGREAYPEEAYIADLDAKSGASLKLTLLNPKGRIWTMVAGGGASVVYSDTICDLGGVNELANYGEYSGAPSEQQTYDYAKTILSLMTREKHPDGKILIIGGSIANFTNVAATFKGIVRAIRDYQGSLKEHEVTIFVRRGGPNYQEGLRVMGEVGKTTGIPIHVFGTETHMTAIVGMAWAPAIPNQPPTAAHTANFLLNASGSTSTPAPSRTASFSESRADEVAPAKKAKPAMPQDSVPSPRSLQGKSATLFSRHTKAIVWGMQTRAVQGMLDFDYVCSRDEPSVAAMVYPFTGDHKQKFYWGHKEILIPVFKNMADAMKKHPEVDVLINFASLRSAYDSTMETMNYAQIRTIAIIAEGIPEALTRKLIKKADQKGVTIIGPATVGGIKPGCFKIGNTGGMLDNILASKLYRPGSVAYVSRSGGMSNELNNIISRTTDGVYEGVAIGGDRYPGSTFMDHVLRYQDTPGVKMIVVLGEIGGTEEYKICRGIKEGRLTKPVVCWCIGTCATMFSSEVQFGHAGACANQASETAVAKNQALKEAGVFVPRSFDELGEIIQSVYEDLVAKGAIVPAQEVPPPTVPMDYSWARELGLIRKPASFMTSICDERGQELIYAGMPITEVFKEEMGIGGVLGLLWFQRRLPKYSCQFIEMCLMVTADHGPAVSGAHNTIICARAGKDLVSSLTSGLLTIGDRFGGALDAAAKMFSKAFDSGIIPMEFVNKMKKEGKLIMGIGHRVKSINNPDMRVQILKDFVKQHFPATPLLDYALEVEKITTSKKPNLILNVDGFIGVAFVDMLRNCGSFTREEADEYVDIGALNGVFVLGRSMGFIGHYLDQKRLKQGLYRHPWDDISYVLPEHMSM

[2] = compound: C[S+](=N)([O-])C[C@@](O)(CC(=O)O)C(=O)O; assay: Inhibitory activity against rat ATP-Citrate lyase measured in terms of Km.
[3] = substrate: O=C(O)CC(O)(CC(=O)O)C(=O)O

Row | Molecule | Ki (ATP-citrate synthase) [mM] | other results
1 | C[S+](=N)([O-])C[C@@](O)(CC(=O)O)C(=O)O (stereo in doubt; 12b) [listing 1 of 2 here] | – | Relative Vmax [1]: < 0.003
2 | C[S+](=N)([O-])C[C@@](O)(CC(=O)O)C(=O)O (stereo in doubt; 12a) [listing 1 of 2 here] | – | Relative Vmax [1]: 0.25
3 | O=C(O)C[C@H](C[C@@]1(O)CNC1=O)C(=O)O | > 20 | –
4 | O=C(O)C[C@H](C[C@]1(O)CNC1=O)C(=O)O | > 9 | –
5 | C[S+](=N)([O-])C[C@@](O)(CC(=O)O)C(=O)O (stereo in doubt; 12b) [listing 2 of 2 here] | > 10 | –
6 | C[S+](=N)([O-])C[C@@](O)(CC(=O)O)C(=O)O (stereo in doubt; 12a) [listing 2 of 2 here] | 0.25 | –
7 | B1 | – | Km [2]: 1300 µM; Km [3]: 110 µM
